Assay results as given in ChEMBL document CHEMBL1201862, “PubChem BioAssay data set” (2004).
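All cell lines were grown in 96-well plates and treated with compound for 48 hours. GI50 is the concentration that inhibits growth by half.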 Activity calls are given as the source filed them. Cut-off read from the data, not from the text of the source: active = GI50 up to about 1.1 µM and inactive = higher.

Columns and labels:
Assay in all cases: NCI-60 cell line screen, 48 h
[1] = tested on: IGROV-1
[2] = tested on: SK-MEL-2
[3] = tested on: HL-60
[4] = tested on: MCF7
[5] = tested on: UACC-62
[6] = tested on: HCT-116
[7] = tested on: OVCAR-3
[8] = tested on: MDA-MB-231
[9] = tested on: SF-268
[10] = tested on: NCI-H226
[11] = tested on: HCT-15
[12] = tested on: MDA-MB-435
[13] = tested on: A549
[14] = tested on: HOP-62
[15] = tested on: SNB-19
[16] = tested on: ACHN
[17] = tested on: OVCAR-4
[18] = tested on: Malme-3M
[19] = tested on: CCRF-CEM

Structure (SMILES)	GI50 [1]	GI50 [2]	GI50 [3]	GI50 [4]	GI50 [5]	GI50 [6]	GI50 [7]	GI50 [8]	GI50 [9]	GI50 [10]	GI50 [11]	GI50 [12]	GI50 [13]	GI50 [14]	GI50 [15]	GI50 [16]	GI50 [17]	GI50 [18]	GI50 [19]
COc1cccc(/C=C2\S/C(=N/Nc3nc(C)c(C)s3)NC2=O)c1O	34.3 µM (inactive)	> 100 µM (inactive)	56.1 µM (inactive)	> 100 µM (inactive)	69.5 µM (inactive)	> 100 µM (inactive)	87.1 µM (inactive)	> 100 µM (inactive)	> 100 µM (inactive)	> 100 µM (inactive)	> 100 µM	> 100 µM (inactive)	> 100 µM (inactive)	> 100 µM (inactive)	> 100 µM (inactive)	> 100 µM (inactive)	> 100 µM (inactive)		
C=CC1(C)CCC2C(=CCC3C(C)(COC4OC(C(=O)O)C(O)C(O)C4O)C(O)CCC23C)C1.C=CC1(C)CCC2C(=CCC3C2(C)CC(O)C(O)C3(C)COC2OC(C(=O)O)C(O)C(O)C2O)C1 (stereo not given)	> 100 µM (inactive)	> 100 µM (inactive)		71 µM (inactive)	> 100 µM (inactive)	> 100 µM (inactive)	> 100 µM (inactive)	> 100 µM (inactive)	> 100 µM (inactive)	> 100 µM (inactive)	> 100 µM	> 100 µM (inactive)	> 100 µM (inactive)	> 100 µM (inactive)	> 100 µM (inactive)	> 100 µM (inactive)	> 100 µM (inactive)	> 100 µM (inactive)	19.4 µM (inactive)
COc1ccc(-c2cc(-c3ccco3)c(C#N)c(=S)n2C2OC(CO)C(O)C(O)C2O)cc1 (stereo not given)	92.3 µM (inactive)	> 100 µM (inactive)		58.6 µM (inactive)		> 100 µM (inactive)	49.7 µM (inactive)	36.2 µM (inactive)	> 100 µM (inactive)	> 100 µM (inactive)	> 100 µM	> 100 µM (inactive)	> 100 µM (inactive)	> 100 µM (inactive)	> 100 µM (inactive)	> 100 µM (inactive)	> 100 µM (inactive)	> 100 µM (inactive)	> 100 µM (inactive)
CN(C)CCCN1C(=S)N(CCCN(C)C)c2c3ccccc3nc3c([N+](=O)[O-])ccc1c23	3.06 µM (inactive)	12.5 µM (inactive)		5.47 µM (inactive)	9.95 µM (inactive)	3.71 µM (inactive)	6.21 µM (inactive)	10.4 µM (inactive)	4.21 µM (inactive)	8.02 µM (inactive)	5.09 µM	5.47 µM (inactive)	5.41 µM (inactive)	8.95 µM (inactive)	8.67 µM (inactive)	4.06 µM (inactive)	11.5 µM (inactive)	1.75 µM (inactive)	18.8 µM (inactive)
Nc1cc(N2CCOCC2)nc(=O)n1-c1ccccc1	> 100 µM (inactive)	> 100 µM (inactive)	21.4 µM (inactive)	> 100 µM (inactive)	> 100 µM (inactive)	> 100 µM (inactive)	> 100 µM (inactive)			> 100 µM (inactive)	> 100 µM	> 100 µM (inactive)	> 100 µM (inactive)	> 100 µM (inactive)	> 100 µM (inactive)	> 100 µM (inactive)			> 100 µM (inactive)
COc1cc2nc3n(c(=O)c2cc1OC)-c1ccc([N+](=O)[O-])cc1C3=O	26.1 µM (inactive)	> 100 µM (inactive)		11.9 µM (inactive)	30.5 µM (inactive)	34.8 µM (inactive)	22.6 µM (inactive)	46 µM (inactive)	> 100 µM (inactive)	26.1 µM (inactive)	32.4 µM	19.4 µM (inactive)	52.7 µM (inactive)	> 100 µM (inactive)	> 100 µM (inactive)	39.2 µM (inactive)	15 µM (inactive)	34.5 µM (inactive)	
O=C1CCCCC/C1=C\c1ccc(Cl)cc1	67.6 µM (inactive)	34.8 µM (inactive)			25.2 µM (inactive)	35.4 µM (inactive)	47.8 µM (inactive)	73.6 µM (inactive)	14.5 µM (inactive)	81.1 µM (inactive)	28.1 µM	20.6 µM (inactive)	36.1 µM (inactive)	99.8 µM (inactive)	55.1 µM (inactive)	32.1 µM (inactive)	26.7 µM (inactive)	52.6 µM (inactive)	22.6 µM (inactive)
CC(=O)OC1CCC2(C)C(CCC3C2CCC2(C)C(c4ccc(=O)oc4)C(OC(C)=O)CC32O)C1 (stereo not given)	0.0173 µM (active)	0.0258 µM (active)	0.0154 µM (active)	0.0164 µM (active)	0.0169 µM (active)	0.0157 µM (active)	0.0161 µM (active)		0.0144 µM (active)	0.0356 µM (active)	0.0136 µM		0.0135 µM (active)	0.015 µM (active)	0.0293 µM (active)		0.0125 µM (active)	0.0125 µM (active)	0.0151 µM (active)
